This passage reports IC50 results from US7741488B2, “Tetrahydropyridothiophenes as antiproliferative agents for the treatment of cancer” (4SC AG, priority 2005, dated 2010).

For test [1], the system named is RKOp27 colon adenocarcinoma cells arrested by expression of ectopic p27Kip1. The experiment in a line: Alamar Blue cell viability assay on RKO p27 cells arrested by Ponasterone A induced p27Kip1 (cell cycle specific mode of action). The format is cell-based. The settings on record: Homo sapiens, 72 hours, cells arrested by p27Kip1 induced with 10 μM Ponasterone A. Put shortly: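 RKOp27 cells, 16000 per well in DMEM/10% FCS, arrested by p27Kip1 induced with 10 μM Ponasterone A, then dosed 24 h later and incubated 72 h at 37° C, quadruplicates. Alamar Blue fluorescence (544/590 nm) gave viability as % of untreated cells, set against proliferating cells grown without inducer.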
For orientation: Alamar Blue is a resazurin reagent that responds to reducing activity.

Test [2] relates to RKO (RKOp27) human colon adenocarcinoma cells. The experiment in a line: Alamar Blue cell viability assay, anti-proliferative/cytotoxic activity on proliferating (uninduced) RKO p27 cells. To be noted: RKOp27, 72 h, proliferating cells without inducer Ponasterone A. The test is classed as cell-based. Put shortly:
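RKOp27 subclones (4000 cells/well) were seeded 24 h before treatment with semi-log compound dilutions in DMEM/10% FCS, in quadruplicate, for 72 h at 37° C. Alamar Blue fluorescence (544 nm excitation/590 nm emission) was normalised to untreated cells (100%), and IC50 values were taken from concentration-effect curves.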

Structures are written as SMILES.

The term IC50 denotes the concentration at which inhibition is half-maximal. A low value points to greater potency. As to `COc1ccc(C)cc1CCC(=O)Nc1sc2c(c1C#N)CCN(C(=O)OCCn1ccnc1C)C2` [Example 131, 3-Cyano-2-[3-(2-methoxy-5-methyl-phenyl)-propanoylamino]-4,7-dihydro-5H-thieno[2,3-c]pyridine-6-carboxylic acid 2-(2-methyl-imidazol-1-yl)-ethyl ester], the results for the IC50 in test [1] and in test [2] were at least 40000 nM and at most 300 nM, respectively.

With `COc1ccc(C)cc1CCC(=O)Nc1sc2c(c1C#N)CCN(C(=O)OCCn1ccnc1)C2` [Example 132, 3-Cyano-2-[3-(2-methoxy-5-methyl-phenyl)-propanoylamino]-4,7-dihydro-5H-thieno[2,3-c]pyridine-6-carboxylic acid 2-imidazol-1-yl-ethyl ester], the IC50 is at least 40000 nM in test [1] and at most 300 nM in test [2].

`COc1cccc(CCC(=O)Nc2sc3c(c2C#N)CCN(C(=O)OCCn2cnc(C)c2)C3)c1` [Example 142, 3-Cyano-2-[3-(3-methoxy-phenyl)-propanoylamino]-4,7-dihydro-5H-thieno[2,3-c]pyridine-6-carboxylic acid 2-(4-methyl-imidazol-1-yl)-ethyl ester]: the figures for the IC50 in test [1] and in test [2] were above 100000 nM and at most 300 nM, respectively.

For `COc1ccccc1CCC(=O)Nc1sc2c(c1C#N)CCN(C(=O)OCC(=O)O)C2` [Example 153, 3-Cyano-2-[3-(2-methoxy-phenyl)-propanoylamino]-4,7-dihydro-5H-thieno[2,3-c]pyridine-6-carboxylic acid carboxymethyl ester], the IC50 is above 100000 nM in test [1] and 300 to 2000 nM in test [2].

As to `COc1ccc(C)cc1CCC(=O)Nc1sc2c(c1C#N)CCN(C(=O)OCC(=O)O)C2` [Example 155, 3-Cyano-2-[3-(2-methoxy-5-methyl-phenyl)-propanoylamino]-4,7-dihydro-5H-thieno[2,3-c]pyridine-6-carboxylic acid carboxymethyl ester], the 50% inhibitory concentration (IC50) in test [1] is above 100000 nM; in test [2], 300 to 2000 nM.

Consider `CCOc1ccccc1CCC(=O)Nc1sc2c(c1C#N)CCN(C(=O)OCC(=O)OC)C2` [Example 190, 3-Cyano-2-[3-(2-ethoxy-phenyl)-propanoylamino]-4,7-dihydro-5H-thieno[2,3-c]pyridine-6-carboxylic acid methoxycarbonylmethyl ester], for which the IC50 in test [1] is above 100000 nM; in test [2], at most 300 nM.
